Laboratory results: a melting point compilation (Tetko et al.; mined from patent text by program, amines drawn as free bases though some values may be those of a salt)

First: Cc1ccc2c(c1)[nH]c(=O)n2CCCN1CCC(C(=O)c2ccc(F)cc2)CC1
Second: O=C(CC1CCN(CC2CC2)CC1)c1ccc(O)cc1
The melting point of the first is lower: 149 °C for the first, 209 to 211 °C for the second.

First: O=c1ccnc(NCCCN(Cc2cccc(Cl)c2)c2ccccn2)[nH]1
Second: Cc1cc(Cc2cnc(NCCSCc3ncccc3Br)[nH]c2=O)cnc1C
The melting point of the first is lower: 74 to 78 °C for the first, 105 to 107 °C for the second.

First: COc1ccc(CC(=O)NCCc2ccc([N+](=O)[O-])cc2)cc1
Second: COCCN(C)Cc1ccc(NC(=O)C#Cc2ccc(-c3ccc(Cl)cc3)cc2)cc1
The melting point of the first is lower: 109 to 110 °C for the first, 130 to 133 °C for the second.

Compared with COc1cc(OC)nc(NC(=O)OC(C)C)n1, Cc1cc(C)c(-c2cc3cnc(N)nc3nc2NC(=O)NC(C)(C)C)c(C)c1 is higher in melting point: 51 to 54 °C for the first, 281 to 297 °C for the second.

Compared with COc1cc2c(cc1O)CCC(=O)N2Cc1cc(OC)c(OC)c(OC)c1, COc1cc(C2C3=C(COC3=O)N(Cc3ccc([N+](=O)[O-])cc3)c3cc4c(cc32)OCO4)cc(OC)c1OC (stereo not given) is higher in melting point: 157 to 158 °C for the first, 240 °C for the second.

First: CCOC(=O)Nc1cc(-c2ccccc2)n(-c2ccc(S(N)(=O)=O)cc2)n1
Second: CCOC(=O)c1cc2ccc3sc4ccccc4c3c2n1C
The melting point of the first is higher: 121 to 128 °C for the first, 85 to 86 °C for the second.

First: O=C1CC(c2ccccc2)CC(=O)O1
Second: O=C(O)CCCC(=O)NCc1ccccc1
The melting point of the first is higher: 102 to 103 °C for the first, 83 to 84 °C for the second.

Compared with COc1cccc(-c2cccc3c2CCn2cc(-c4ccccc4)nc2C3OC2CCN(C)CC2)c1 (stereo not given), COC(=O)CCCC#CCn1c(-c2ccccc2)c(-c2ccccc2)n(-c2ccccc2)c1=O is higher in melting point: 93 °C for the first, 133 to 134 °C for the second.

Compared with NC(=O)c1cc2c(Oc3ccc(C(=O)NCCN4CCOCC4)cc3)cncc2s1, O=[N+]([O-])c1cccc(N2CCOCC2)c1 is lower in melting point: 214 to 216 °C for the first, 87 to 90 °C for the second.

First: CC1(C)Cc2ccsc2C=[N+]1[O-]
Second: C[C@H]1C(=O)C[C@@H]2C[C@H]1OO[C@]2(C)/C=C\c1ccc(C(F)(F)F)cc1Cl
The melting point of the first is lower: 136 to 138 °C for the first, 160 °C for the second.

Compared with CCC[C@H]1CC[C@H](CCc2ccc(-c3ccc(OCC)c(F)c3F)cc2)CC1, CCOC(=O)c1cn2c3c(c(F)c(F)cc3c1=O)CCC2CCl (stereo not given) is higher in melting point: 73 °C for the first, 215 to 218 °C for the second.

Compared with CCCCc1ncc(/C=C(\Cc2cccs2)C(=O)O)n1Cc1ccc(C(=O)O)cc1[N+](=O)[O-], CN(c1cccc2c(F)c(C3=NCC(CC(=O)O)S3)[nH]c12)S(=O)(=O)c1cccs1 (stereo not given) is higher in melting point: 163 °C for the first, 213 to 214 °C for the second.

First: Fc1ccccc1NC(=S)N1CCN(c2cnccn2)CC1
Second: OC[C@H](O)[C@H](O)COc1nc(N2CCNCC2)nc2ccccc12 (racemic)
The melting point of the first is lower: 151 to 153 °C for the first, 168 to 172 °C for the second.

Compared with CCC(C)(C)c1ccc(Oc2ccc(C(F)(F)F)cc2NC(=O)Nc2cc(C(F)(F)F)cc(C(F)(F)F)c2)c(C(=O)O)c1, CC(C)c1ccc(C(=O)NNC(=O)c2ccc(C(=O)O)cc2)cc1 is lower in melting point: 238 to 240 °C for the first, 235 to 237 °C for the second.

First: CP(=O)(O)CNC(=O)OCc1ccccc1
Second: Cc1nnc(-c2[nH]c3ccccc3c2Cl)o1
The melting point of the first is lower: 118 to 119 °C for the first, 267 to 268 °C for the second.

Compared with CC(C)CN1C(=O)C2=C3SC(S(N)(=O)=O)=CC1CC(C2)S3(=O)=O (stereo not given), CCN1CCC2(CC1)CN=C(c1cc3cccc(N(C)S(=O)(=O)c4cccs4)c3[nH]1)S2 is lower in melting point: 239 to 241 °C for the first, 215 °C for the second.

First: CC(C)c1n[nH]c2c(O)ncnc12
Second: C1=Cc2cccnc2Nc2ncccc21
The melting point of the first is higher: 302 to 304 °C for the first, 126 to 129 °C for the second.

First: CCN(CC)CCOc1ccc(Nc2nc(N)c(C(=O)c3cccc(OC)c3)s2)cc1
Second: Cc1nc2sc(Br)cc2c(=O)n1-c1ccccc1Cl
The melting point of the first is lower: 118 to 123 °C for the first, 164 to 166 °C for the second.

First: CC(C)(C)c1nnc(S)o1
Second: COC(=O)c1cn(CC(F)(F)F)c2c(C)cc(F)cc2c1=O
The melting point of the first is lower: 79 to 80 °C for the first, 168 to 171 °C for the second.

First: CN1Cc2c(-c3noc(CN4CCCCC4)n3)ncn2-c2ccccc2C1=O
Second: CCCC12COC(C=O)(OC1)OC2
The melting point of the first is higher: 167 to 168 °C for the first, 117 to 118 °C for the second.
